According to the NIST ThermoML archive (doi:10.1021/acs.jced.8b00132):
Several values for one entry are separate records, joined by “and”; a condition that tells them apart may be missing. Equal values may be shown once.

Conditions: Gas

O=C(C(F)(F)C(F)(F)F)C(F)(C(F)(F)F)C(F)(F)F [dodecafluoro-2-methylpentan-3-one]
Conditions	thermal conductivity
453.04 K, 2349 kPa, transient hot wire	0.03749 W/m/K
453.05 K, 2432 kPa, transient hot wire	0.03632 W/m/K
453.06 K, 2213 kPa, transient hot wire	0.03787 W/m/K
453.06 K, 2283 kPa, transient hot wire	0.039 W/m/K
453.07 K, 2432 kPa, transient hot wire	0.03565 W/m/K
453.08 K, 2213 kPa, transient hot wire	0.03857 W/m/K and 0.03787 W/m/K
453.09 K, 2350 kPa, transient hot wire	0.03794 W/m/K and 0.03775 W/m/K
453.11 K, 2432 kPa, transient hot wire	0.03612 W/m/K and 0.03616 W/m/K
453.11 K, 2570 kPa, transient hot wire	0.03577 W/m/K and 0.03583 W/m/K
453.11 K, 2808 kPa, transient hot wire	0.03624 W/m/K and 0.03614 W/m/K
453.14 K, 2350 kPa, transient hot wire	0.03841 W/m/K and 0.03851 W/m/K
453.15 K, 2570 kPa, transient hot wire	0.0359 W/m/K
453.16 K, 2433 kPa, transient hot wire	0.03632 W/m/K
453.17 K, 2136 kPa, transient hot wire	0.03394 W/m/K and 0.03367 W/m/K
453.17 K, 2432 kPa, transient hot wire	0.03641 W/m/K
453.17 K, 2808 kPa, transient hot wire	0.03589 W/m/K
453.19 K, 5686 kPa, transient hot wire	0.04064 W/m/K
453.21 K, 2136 kPa, transient hot wire	0.03328 W/m/K
453.21 K, 2570 kPa, transient hot wire	0.03619 W/m/K
453.21 K, 3282 kPa, transient hot wire	0.03735 W/m/K
453.21 K, 3283 kPa, transient hot wire	0.03693 W/m/K
453.22 K, 2136 kPa, transient hot wire	0.03435 W/m/K
453.22 K, 2432 kPa, transient hot wire	0.03662 W/m/K
453.22 K, 2570 kPa, transient hot wire	0.03586 W/m/K
453.22 K, 2810 kPa, transient hot wire	0.03611 W/m/K
453.23 K, 2433 kPa, transient hot wire	0.03706 W/m/K
453.23 K, 2810 kPa, transient hot wire	0.03619 W/m/K
453.23 K, 8482 kPa, transient hot wire	0.04362 W/m/K
453.24 K, 8482 kPa, transient hot wire	0.04354 W/m/K
453.26 K, 5649 kPa, transient hot wire	0.04056 W/m/K
453.27 K, 3283 kPa, transient hot wire	0.03745 W/m/K
453.27 K, 5649 kPa, transient hot wire	0.04057 W/m/K
453.28 K, 2570 kPa, transient hot wire	0.03618 W/m/K
453.29 K, 2570 kPa, transient hot wire	0.03626 W/m/K
453.29 K, 2810 kPa, transient hot wire	0.03632 W/m/K
453.29 K, 4172 kPa, transient hot wire	0.03871 W/m/K
453.29 K, 4174 kPa, transient hot wire	0.03872 W/m/K
453.3 K, 2810 kPa, transient hot wire	0.03661 W/m/K
453.33 K, 2570 kPa, transient hot wire	0.03666 W/m/K
453.33 K, 3284 kPa, transient hot wire	0.03713 W/m/K
453.34 K, 1996 kPa, transient hot wire	0.03032 W/m/K
453.34 K, 3284 kPa, transient hot wire	0.03709 W/m/K
453.34 K, 5678 kPa, transient hot wire	0.04058 W/m/K
453.34 K, 5680 kPa, transient hot wire	0.0407 W/m/K
453.36 K, 1997 kPa, transient hot wire	0.02939 W/m/K
453.36 K, 2570 kPa, transient hot wire	0.03639 W/m/K
453.36 K, 2811 kPa, transient hot wire	0.03631 W/m/K
453.37 K, 8482 kPa, transient hot wire	0.04354 W/m/K
453.38 K, 8480 kPa, transient hot wire	0.0435 W/m/K
453.39 K, 4177 kPa, transient hot wire	0.03877 W/m/K
453.4 K, 3286 kPa, transient hot wire	0.03741 W/m/K
453.4 K, 5646 kPa, transient hot wire	0.04064 W/m/K
453.4 K, 13124 kPa, transient hot wire	0.04703 W/m/K and 0.04697 W/m/K
453.41 K, 3285 kPa, transient hot wire	0.03741 W/m/K
453.41 K, 5645 kPa, transient hot wire	0.04067 W/m/K
453.42 K, 1998 kPa, transient hot wire	0.02991 W/m/K and 0.02978 W/m/K
453.46 K, 20262 kPa, transient hot wire	0.05129 W/m/K
453.48 K, 3286 kPa, transient hot wire	0.03719 W/m/K
453.48 K, 5676 kPa, transient hot wire	0.04078 W/m/K
453.48 K, 20262 kPa, transient hot wire	0.05134 W/m/K
453.49 K, 4182 kPa, transient hot wire	0.03866 W/m/K
453.49 K, 5674 kPa, transient hot wire	0.04064 W/m/K
453.49 K, 8479 kPa, transient hot wire	0.04353 W/m/K
453.5 K, 4184 kPa, transient hot wire	0.03869 W/m/K
453.5 K, 31253 kPa, transient hot wire	0.05652 W/m/K
453.51 K, 8480 kPa, transient hot wire	0.04354 W/m/K
453.51 K, 31255 kPa, transient hot wire	0.05656 W/m/K
453.52 K, 1999 kPa, transient hot wire	0.03046 W/m/K
453.52 K, 13123 kPa, transient hot wire	0.04703 W/m/K
453.53 K, 13124 kPa, transient hot wire	0.04696 W/m/K
453.54 K, 5643 kPa, transient hot wire	0.04051 W/m/K
453.55 K, 47061 kPa, transient hot wire	0.06271 W/m/K
453.56 K, 1718 kPa, transient hot wire	0.02564 W/m/K
453.58 K, 1718 kPa, transient hot wire	0.02573 W/m/K
453.6 K, 4188 kPa, transient hot wire	0.03889 W/m/K
453.6 K, 46969 kPa, transient hot wire	0.06282 W/m/K
453.6 K, 46979 kPa, transient hot wire	0.06275 W/m/K
453.62 K, 4187 kPa, transient hot wire	0.03872 W/m/K
453.62 K, 20261 kPa, transient hot wire	0.05127 W/m/K
453.62 K, 20264 kPa, transient hot wire	0.05121 W/m/K
453.63 K, 5670 kPa, transient hot wire	0.04057 W/m/K
453.63 K, 5671 kPa, transient hot wire	0.04054 W/m/K
453.63 K, 31252 kPa, transient hot wire	0.05654 W/m/K
453.64 K, 526 kPa, hot wire	0.02431 W/m/K
